Measured values published in PMC9424906 (Frontiers in Pharmacology, 2022).

Legend:
[1] = test system: mild to moderate COVID-19 patients at high risk of progression to severe disease; design: method as in https://www.fda.gov/media/154472/download; details: ref https://www.fda.gov/media/154472/download; cited from earlier work
ENT1 = details: cited from earlier work
ENT2 = details: cited from earlier work
MDR1 = assay: in vitro; details: dog, MDCK-MDR1, pH 7.4
[2] = Bidirectional transport in Caco-2 monolayers; details: human, Caco-2, pH 7.4
[3] = test system: SARS-CoV-2 (USA_WA1/2020); assay: SARS-CoV-2 cytopathic effect (CPE) assay in Vero E6 cells; type: cell-based; details: Severe acute respiratory syndrome coronavirus 2, Vero C1008, 72 h, read-out: EC50, inhibition of SARS-CoV-2 CPE
[4] = test system: SARS-CoV-2 (2019-nCoV/USA-WAl/2020); type: cell-based; details: EpiAirway 3D HAE tissue model, 24 h
[5] = test system: EpiAirway human tracheobronchial epithelial tissues; details: EpiAirway 3D HAE tissue model
[6] = test system: hospitalized COVID-19 patients; design: method as in Beigel et al., 2020a; details: treatment group, ref Beigel et al., 2020a; cited from earlier work
[7] = test system: mild to moderate COVID-19 patients at risk of progression to severe disease; design: method as in Gottlieb et al., 2021; details: early 3-day course, ref Gottlieb et al., 2021; cited from earlier work
BCRP = biological target: T1, BCRP (Homo sapiens, UniProt Q9UNQ0); assay: Bidirectional transport in MDCK-BCRP monolayers; type: in vitro ADME; details: dog, pH 7.4; MDCK-BCRP cells; read-out: Efflux ratio of positive control
T1 construct: host or cells: MDCK (BCRP-MDCK)
T1 sequence (Q9UNQ0 1-655): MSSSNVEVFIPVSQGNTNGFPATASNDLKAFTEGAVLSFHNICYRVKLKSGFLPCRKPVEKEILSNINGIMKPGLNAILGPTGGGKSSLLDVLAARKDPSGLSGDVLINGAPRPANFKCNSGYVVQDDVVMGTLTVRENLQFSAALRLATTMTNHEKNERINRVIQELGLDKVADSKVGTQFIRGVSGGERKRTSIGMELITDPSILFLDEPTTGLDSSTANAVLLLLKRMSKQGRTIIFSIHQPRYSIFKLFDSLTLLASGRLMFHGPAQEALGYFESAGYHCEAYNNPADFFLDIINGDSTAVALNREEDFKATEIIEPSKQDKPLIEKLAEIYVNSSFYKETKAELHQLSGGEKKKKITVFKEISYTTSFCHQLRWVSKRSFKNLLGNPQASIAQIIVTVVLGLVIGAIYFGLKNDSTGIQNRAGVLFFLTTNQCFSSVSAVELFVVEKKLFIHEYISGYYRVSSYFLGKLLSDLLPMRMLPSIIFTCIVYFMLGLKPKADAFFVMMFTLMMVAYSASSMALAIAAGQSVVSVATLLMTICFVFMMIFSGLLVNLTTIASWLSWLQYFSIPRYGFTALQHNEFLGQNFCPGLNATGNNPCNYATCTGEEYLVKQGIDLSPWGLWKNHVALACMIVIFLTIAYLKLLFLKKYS
Description: Caco-2 (American Type Culture Collection), MDR1-MDCK (NIH), and BCRP-MDCK (transfected by Absorption Systems) cell monolayers were grown to confluence on collagen-coated, microporous membranes in 12-well assay plates. Caco-2 cells were cultured for 27 days, MDCK-MDR1 and MDCK-BCRP cells were cultured for 8 days prior to experiments. […] The experiment was carried out in Hanks’ balanced salt solution (HBSS) containing 10 mM HEPES and 15 mM glucose at pH 7.4. HBSS in the receiver chamber also contained 1% bovine serum albumin. Cells were first pre-incubated for 0.5 h in HBSS with or without the specific inhibitor (1 µM valspodar or 0.5 µM Ko143 for MDR1 and BCRP, respectively). […] Cell monolayers were dosed on the apical side (A to B) or basolateral side (B to A) and incubated at 37°C with 5% CO2 in a humidified incubator. Samples were taken from the donor and receiver chambers at 2 h. Each experiment was performed in duplicate. All samples were assayed by LC-MS/MS. The apparent permeability (Papp) and percent recovery were calculated as described previously ([Katoh et al., 2006]; [Xia et al., 2006]; [Li et al., 2008]).

CC(C)C(=O)OC[C@H]1O[C@@H](n2ccc(NO)nc2=O)[C@H](O)[C@@H]1O [EIDD-2801]
Reduction of progression to hospitalization of death compared to placebo [1]: 30% | Inhibitor of ENT1 (ENT1): inhibitors | Inhibitor of ENT2 (ENT2): inhibitors

C[C@H]1O[C@@H](O[C@H]2[C@@H](O)C[C@H](O[C@H]3[C@@H](O)C[C@H](O[C@H]4CC[C@@]5(C)[C@H](CC[C@@H]6[C@@H]5C[C@@H](O)[C@]5(C)[C@@H](C7=CC(=O)OC7)CC[C@]65O)C4)O[C@@H]3C)O[C@@H]2C)C[C@H](O)[C@@H]1O [digoxin, reference compound]
efflux ratio at 2 h (MDR1): 110 | efflux ratio at 2 h [2]: 27

CCC(CC)COC(=O)[C@H](C)N[P@](=O)(OC[C@H]1O[C@@](C#N)(c2ccc3c(N)ncnn23)[C@H](O)[C@@H]1O)Oc1ccccc1 [remdesivir]
EC50 [3]: 7.43 µM | Potency on viral titer (TCID50) at 24 h [4]: lower potency than EIDD-2801 | Cytotoxicity [5]: did not exhibit any cytotoxicity | Reduction of time to recovery [6]: 33% | Reduction of progression to hospitalization or death [7]: 87%

O=c1nc(NO)ccn1[C@@H]1O[C@H](CO)[C@@H](O)[C@H]1O [EIDD-1931, N-hydroxycytidine]
Inhibitor of ENT1 (ENT1): inhibitors | Inhibitor of ENT2 (ENT2): inhibitors

Nc1nc(Cl)nc2c1ncn2[C@H]1C[C@H](O)[C@@H](CO)O1 [cladribine, reference compound]
efflux ratio at 2 h (BCRP): 153 | efflux ratio at 2 h [2]: 26
